Measured values reported in publication PMC10892536, “Establishment and Validation of a Transdermal Drug Delivery System for the Anti-Depressant Drug Citalopram Hydrobromide” (Molecules, 2024).
Where a name gives a salt, the structure may show the parent alone.

Assay: In vivo pharmacokinetic study in rabbits
Conditions: oral gavage, n = 6
Method: CTH in the samples was quantified using a CoM 6000 HPLC system (CoMetro Technology, South Plainfield, NJ, USA) with a Comatex C18-AB column (250 × 4.6 mm, 5 μm; 115 Corp, Plainfield, NJ, USA) at 238 nm. The mobile phase was 0.1 mol/L acetonitrile, 0.1 mol/L ammonium acetate, and 0.01 mol/L heptane sodium sulfonate at a ratio of 5:5:1 (v/v). The flow rate was 1.0 mL/min, and the column temperature was 25 °C. All sample solutions were degassed and the injection volume was maintained at 20 μL [44, 53]. The particular application detail on the CoM 6000 HPLC system referred to a previous introduction in our laboratory.
The rabbits were assigned to one of the following three groups: A, B, or C. The abdominal hair of the rabbits in groups B and C was shaved off with an electric hair remover, and after cleaning the skin with normal saline, the optimized TDDS was applied to the abdomens of […] in group B, and blank patches were applied to the abdomens of rabbits in group C. Group A was administered CTH by oral gavage. The oral gavage procedure involved fixing the rabbits with an animal fixator and placing a special mouth expander with a rope attached to their mouth. An elastic rubber catheter was inserted through a small round hole in the mouth expander and pushed into the esophagus along the posterior pharyngeal wall. A solution consistent with the TDDS concentration was added. After gastric perfusion, the catheter and mouth opener were removed. Next, 1 mL aliquots of blood were collected from the marginal auricular vein of the experimental animals at different time intervals (1, 2, 4, 7, 12, and 24 h), placed in heparinized tubes, and centrifuged at 1500× g for 10 min. The resulting plasma supernatant was stored at −70 °C until further analysis. HPLC analyses were carried out by transferring 200 μL of the supernatant to a 1.5 mL polyethylene centrifuge tube. The tubes were then mixed with 300 μL acetonitrile, centrifuged at 2500× g for 10 min, and filtered through a 0.22 μm membrane.
The pharmacokinetic parameters of the conventional oral and sustained-release transdermal preparations were analyzed, including the maximum plasma concentration of the drug (Cmax), the time to reach the Cmax (Tmax), the mean residence time (MRT), and the area under the plasma concentration–time curve from time 0 to t (AUC(0-t)). Two-tailed Student’s t-tests were performed for the Cmax and AUC(0-t) analyses, and a non-parametric test was performed for the Tmax analysis. The AUC(0-t) was calculated using the trapezoidal rule.

With `CN(C)CCCC1(c2ccc(F)cc2)OCc2cc(C#N)ccc21` (stereo not shown) [CTH, citalopram hydrobromide] the “AUC(0-t)” value was 8460.37 ± 996.43 ng/h/mL, the Cmax (rabbit, plasma) was 4900 ± 396 ng/mL and the MRT (rabbit, plasma) was 2.4 ± 0.25 h. For the same molecule, the Tmax (rabbit, plasma) was 1 h.
